Patent US8703917B2, “Epidermal growth factor receptor variants and pharmaceutical compositions thereof” (Shanghai Cancer Institute, priority 2010, dated 2014)

Tests used:
[1] = test system: U87MG EGFRwt; assay: Cell growth suppression assay (CCK-8) using small molecular inhibitors against EGFR; format: cell-based, human; details: U87MG EGFRwt cells, 72 h with inhibitor, CCK-8 OD450
Experimental: (§1) Methods: cells in the log-phase growth were plated in 96-well plates with 3000 cells/well. […] The medium were replaced with fresh medium containing 10% CCK-8 reagents and incubated for another 2 h. The OD450 value was then measured.

[2] = test system: U87MG EGFRvA; assay: as above; format: cell-based, human
Experimental: as §1

IC50 [1]	IC50 ([2]; U87MG EGFRvA cells, 72 h with inhibitor, CCK-8 OD450)	IC50 ratio (EGFRvA/EGFRwt) ([2]; U87MG EGFRvA versus U87MG EGFRwt)	Compound	sensitivity of cell line stably expressing EGFRvA compared with cell line stably expressing EGFR ([2]; FIG. 7)
0.89 µM	4.06 µM	4.56	COc1cc2ncnc(Nc3cccc(Cl)c3)c2cc1OC [AG1478]	
			C#Cc1cccc(Nc2ncnc3cc(OCCOC)c(OCCOC)cc23)c1 [Erlotinib]	lower sensitivity
